What was measured:
[1] = target: T1, Mitogen-activated protein kinase kinase kinase 12 (Homo sapiens, UniProt Q12852); test: Inhibition of doxycycline inducible human DLK transfected in HEK293 cells assessed as JNK phosphorylation after […] in presence of 10% bovine serum by Hoechst-33342 staining-based assay; assay type: cell-based
T1 sequence (Q12852 whole entry): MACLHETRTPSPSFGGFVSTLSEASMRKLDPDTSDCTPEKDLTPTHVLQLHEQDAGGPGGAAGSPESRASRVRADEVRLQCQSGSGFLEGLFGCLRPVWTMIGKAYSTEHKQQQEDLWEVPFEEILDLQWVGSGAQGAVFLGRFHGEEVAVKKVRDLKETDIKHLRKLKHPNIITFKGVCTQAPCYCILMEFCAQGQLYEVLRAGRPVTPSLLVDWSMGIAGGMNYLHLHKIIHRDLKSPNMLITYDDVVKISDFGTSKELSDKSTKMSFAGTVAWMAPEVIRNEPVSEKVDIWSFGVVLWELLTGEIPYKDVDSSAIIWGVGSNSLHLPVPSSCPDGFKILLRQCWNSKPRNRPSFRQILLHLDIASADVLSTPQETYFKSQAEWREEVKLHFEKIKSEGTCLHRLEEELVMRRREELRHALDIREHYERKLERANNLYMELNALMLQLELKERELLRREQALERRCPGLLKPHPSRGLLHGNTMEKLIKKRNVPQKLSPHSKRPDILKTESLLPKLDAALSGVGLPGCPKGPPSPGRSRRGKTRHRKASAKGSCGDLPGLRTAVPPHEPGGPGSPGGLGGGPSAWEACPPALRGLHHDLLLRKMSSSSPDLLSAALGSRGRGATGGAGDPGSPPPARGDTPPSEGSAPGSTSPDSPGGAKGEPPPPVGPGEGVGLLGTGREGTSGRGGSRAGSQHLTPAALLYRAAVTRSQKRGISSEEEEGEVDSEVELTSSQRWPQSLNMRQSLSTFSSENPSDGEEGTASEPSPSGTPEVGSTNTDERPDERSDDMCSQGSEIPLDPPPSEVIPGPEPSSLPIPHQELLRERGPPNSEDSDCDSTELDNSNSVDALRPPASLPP

[2] = target: Serine/threonine-protein kinase 26 (Homo sapiens) (UniProt Q9P289); test: Inhibition of recombinant GST-tagged human MST4 expressed in baculovirus at 1 uM by FRET assay relative to control
Myotonin-protein kinase = Myotonin-protein kinase (Homo sapiens, UniProt Q09013); test: Inhibition of full length recombinant human DMPK expressed in baculovirus expression system by FRET assay
[3] = target: Calcium/calmodulin-dependent protein kinase type IV (Homo sapiens) (UniProt Q16566); test: Inhibition of recombinant full length GST-tagged human CamK4 expressed in Escherichia coli at 1 uM by FRET assay relative to control
Sequence of Calcium/calmodulin-dependent protein kinase type IV (Homo sapiens) (Q16566 whole entry): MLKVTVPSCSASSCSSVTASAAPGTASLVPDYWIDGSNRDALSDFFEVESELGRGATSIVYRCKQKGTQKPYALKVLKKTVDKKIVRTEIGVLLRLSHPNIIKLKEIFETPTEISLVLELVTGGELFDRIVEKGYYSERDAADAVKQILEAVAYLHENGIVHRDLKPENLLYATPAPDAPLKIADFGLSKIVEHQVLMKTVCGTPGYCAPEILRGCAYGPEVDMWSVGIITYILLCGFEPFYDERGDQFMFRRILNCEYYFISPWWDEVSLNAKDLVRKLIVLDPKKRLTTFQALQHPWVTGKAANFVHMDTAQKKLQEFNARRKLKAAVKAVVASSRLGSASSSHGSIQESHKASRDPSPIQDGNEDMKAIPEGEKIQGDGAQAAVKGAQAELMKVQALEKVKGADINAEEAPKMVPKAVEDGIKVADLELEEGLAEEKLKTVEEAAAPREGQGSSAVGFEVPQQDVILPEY

Sequence of Serine/threonine-protein kinase 26 (Homo sapiens) (Q9P289 2-416 limits assumed): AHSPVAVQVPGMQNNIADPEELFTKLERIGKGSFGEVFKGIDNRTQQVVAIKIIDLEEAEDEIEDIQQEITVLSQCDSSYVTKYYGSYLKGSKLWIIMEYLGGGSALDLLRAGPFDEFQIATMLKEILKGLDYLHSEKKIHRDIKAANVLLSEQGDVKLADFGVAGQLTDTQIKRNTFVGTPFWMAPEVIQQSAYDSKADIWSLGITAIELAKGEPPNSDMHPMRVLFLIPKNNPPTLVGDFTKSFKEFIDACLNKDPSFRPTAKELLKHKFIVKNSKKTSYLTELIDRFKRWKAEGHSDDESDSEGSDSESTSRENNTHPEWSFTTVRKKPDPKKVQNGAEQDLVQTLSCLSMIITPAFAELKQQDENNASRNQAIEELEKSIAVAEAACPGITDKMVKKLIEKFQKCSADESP
Sequence of Myotonin-protein kinase (Q09013 whole entry): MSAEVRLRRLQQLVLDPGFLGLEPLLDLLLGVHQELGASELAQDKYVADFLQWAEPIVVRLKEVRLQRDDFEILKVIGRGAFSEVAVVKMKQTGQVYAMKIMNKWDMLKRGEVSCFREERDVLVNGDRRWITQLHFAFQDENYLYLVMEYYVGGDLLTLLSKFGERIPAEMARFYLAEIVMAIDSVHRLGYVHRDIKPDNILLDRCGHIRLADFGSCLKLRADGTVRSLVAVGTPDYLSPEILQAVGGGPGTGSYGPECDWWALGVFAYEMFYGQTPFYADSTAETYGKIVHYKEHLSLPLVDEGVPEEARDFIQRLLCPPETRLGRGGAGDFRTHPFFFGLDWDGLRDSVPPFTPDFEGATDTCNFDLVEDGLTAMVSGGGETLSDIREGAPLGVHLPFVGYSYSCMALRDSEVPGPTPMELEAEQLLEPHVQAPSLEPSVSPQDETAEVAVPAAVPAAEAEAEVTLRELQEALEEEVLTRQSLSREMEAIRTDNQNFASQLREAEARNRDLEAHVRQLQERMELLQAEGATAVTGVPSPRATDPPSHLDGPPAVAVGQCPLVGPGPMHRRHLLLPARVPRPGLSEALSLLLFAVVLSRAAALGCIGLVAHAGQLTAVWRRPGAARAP

| SMILES | IC50 [1] [nM] | inhibition [2] [%] | IC50 (Myotonin-protein kinase) [nM] | inhibition [3] [%] |
| --- | --- | --- | --- | --- |
| CC(C)n1nc(-c2cnc(N)c(OC(F)(F)F)c2)cc1[C@H]1[C@@H]2CN(C3COC3)C[C@@H]21 | 129 | -3.5 | – | – |
| Nc1ncc(-c2cc([C@H]3[C@@H]4CN(C5COC5)C[C@@H]43)n(CC3CC3)n2)cc1C(F)(F)F | – | – | 1380 | 12.4 |

Source: ChEMBL document CHEMBL4118097, “Selective Inhibitors of Dual Leucine Zipper Kinase (DLK, MAP3K12) with Activity in a Model of Alzheimer's Disease” (J Med Chem, 2017)
